We go through 44 molecules from patent US20210139517A1, “BICYCLIC HETEROARYL COMPOUNDS AND USES THEREOF” (Revolution Medicines, Inc., priority 2019, published 2021).

The IC50 is the concentration needed to halve the response being measured. Higher therefore signals lower potency.

In one experiment the test system is SOS1 function in cells: cellular pERK in PC-9 cells (EGFR Ex19Del). Put plainly: pERK potency assay in PC-9 cells (AlphaLISA SureFire Ultra p-ERK1/2). In kind it is cell-based. The following applies: 1 hour incubation. Here is the method:
The purpose of this assay is tomeasure the ability of test compounds to inhibit SOS1 function in cells. SOS1 activates RAS proteins by catalyzing the conversion of RAS-GDP to RAS-GTP in response to receptor tyrosine kinase activation. […] The procedure described below measures the level of cellular pERK in response to test compounds in PC-9 cells (EGFR Ex19Del).
PC-9 cells were grown and maintained using media and procedures recommended by the ATCC. On the day prior to compound addition, cells were plated in 384-well cell culture plates (40 μL/well) and grown overnight in a 37° C., 5% CO2 incubator. Test compounds were prepared in 10, 3-fold dilutions in DMSO, with a top concentration of 10 mM. On the day of the assay, 40 nL of test compound was added to each well of cell culture plate using an Echo550 liquid handler (LabCyte). Concentrations of test compound were tested in duplicate with highest test concentration being 10 μM. After compound addition, cells were incubated for 1 hour at 37° C., 5% CO2. Following incubation, culture medium was removed and cells were washed once with phosphate buffered saline.
Cellular pERK level was determined using the AlphaLISA SureFire Ultra p-ERK1/2 Assay Kit (PerkinElmer). Cells were lysed in 25 μL lysis buffer, with shaking at 600 RPM at room temperature for 15 minutes. Lysate (10 μL) was transferred to a 384-well Opti-plate (PerkinElmer) and 5 μL acceptor mix was added. The plate was centrifuged at 1000 RPM for 1 minute, and incubated in the dark for 2 hours. Following this incubation, 5 μL of donor mix was added, the plate was sealed and centrifuged at 1000 RPM for 1 minute, and the mixture was incubated for 2 hours at room temperature. Signal was read on an Envision plate reader (PerkinElmer) using standard AlphaLISA settings. Analysis of raw data was carried out in Excel (Microsoft) and Prism (GraphPad). Signal was plotted vs. the decadal logarithm of compound concentration, and IC50 was determined by fitting a 4-parameter sigmoidal concentration response model.
(In general: Bead proximity is the source of the signal in Alpha formats.)
For `COC1(c2cc3c(N[C@H](C)c4cccc(C(F)F)c4F)ncnc3n(C3CC3)c2=O)CCN(C(C)=O)CC1` [Example 11-4], the IC50 was found to be 32.2 nM. The molecule `COC1(c2cc3c(N[C@H](C)c4cccc(C(F)F)c4F)ncnc3n(C)c2=O)CCN(C(C)=O)[C@H]1C` (some centres unmarked) [Example 32-100] gave an IC50 of 200 nM. This IC50 is about 6.2-fold higher than that of the molecule before.

For the molecule `COC1(c2cc3c(N[C@H](C)c4cccc(C(F)F)c4F)ncnc3n(C)c2=O)CCCN(C(C)=O)C1` (some centres unmarked) [Example 32-68], the IC50 stood at 67.6 nM.

`COC1(c2cc3c(N[C@H](C)c4cccc(C(F)F)c4F)ncnc3n(C)c2=O)CCC2(CC1)COC2` [Example 32-72] yielded an IC50 of 127 nM. Molecule `COc1cccc(Cc2cc3c(N[C@H](C)c4cccc(C(F)F)c4F)nc(C)nc3n(C)c2=O)c1OC` [Example 20] had an IC50 of 3950 nM. As for `C[C@@H](Nc1ncnc2c1cc(C1CCS(=O)(=O)CC1)c(=O)n2C)c1cccc(C(F)F)c1F` [Example 8-5], inhibition was half-maximal at 33.5 nM (IC50).

On to `CC(=O)N1CCC(c2cc3c(N[C@H](C)c4cccc5c4CCC5(F)F)ncnc3n(C)c2=O)CC1` [Example 8-6], for which the IC50 was determined as 34.4 nM. Turning to `COC1(c2cc3c(N[C@H](C)c4cccc(C(F)F)c4F)ncnc3n(C)c2=O)CCN(C(C)=O)[C@@H]1C` (some centres unmarked) [Example 32-101], half-maximal inhibition (IC50) required 348 nM. Same read-out and setting: under `C[C@@H](Nc1ncnc2c1cc(C1=CCS(=O)(=O)CC1)c(=O)n2CC#N)c1cccc(C(F)F)c1F` [Example 11-3] stands 80.7 nM. The molecule `Cc1nc(N[C@H](C)c2cccc(C(F)F)c2F)c2cc(C3(O)CCN(C)CC3)c(=O)n(C)c2n1` [Example 28-2] displayed an IC50 of 572 nM. Against the preceding molecule, the IC50 is about 7.1-fold higher.

`COC1(c2cc3c(N[C@H](C)c4cccc5c4OCC5(F)F)ncnc3n(C)c2=O)CCN(C(C)=O)CC1` [Example 32-76] displayed an IC50 of 17.5 nM. Turning to `C[C@@H](Nc1ncnc2c1cc(C1CCN(CCF)CC1)c(=O)n2C)c1cccc(C(F)F)c1F` [Example 8-4], it took 229 nM to reach half-maximal inhibition (IC50). The molecule `COC1(c2cc3c(N[C@H](C)c4cccc(C(F)F)c4F)ncnc3n(C)c2=O)CN(C(C)=O)CC12CC2` (some centres unmarked) [Example 32-95] came in with an IC50 of 798 nM. Still for that read-out and setting: for `COC1(c2cc3c(N[C@H](C)c4cccc5c4OCC5(F)F)ncnc3n(C)c2=O)CCS(=O)(=O)CC1` [Example 32-77] the value was 47.7 nM; for `Cc1nc(N[C@H](C)c2cccc(C(F)F)c2F)c2cc(C3=CCCOC3)c(=O)n(CCO)c2n1` [Example 11-1], 345 nM; for `CCc1c(C(F)F)cccc1[C@@H](C)Nc1ncnc2c1cc(C1CCN(C(C)=O)CC1)c(=O)n2C` [Example 8-7], 351 nM. Same read-out and setting: under `Cc1c([C@@H](C)Nc2ncnc3c2cc(C2CCS(=O)(=O)CC2)c(=O)n3C)cccc1C(F)(F)F` [Example 8-11] stands 45.1 nM; under `COC1(c2cc3c(N[C@H](C)c4cccc(C(F)F)c4F)ncnc3n(C)c2=O)CCC2(CC1)CN(C(C)=O)C2` [Example 32-78], 49.3 nM; under `COC1(c2cc3c(N[C@@H](C)c4cccc(C(F)F)c4F)ncnc3n(C)c2=O)CCN(C(C)=O)CC1` [Example 32-88], 8.1 nM.

`COC1(c2cc3c(N[C@H](C)c4cccc(C(F)F)c4F)ncnc3n(C)c2=O)CCN(C)CC1` [Example 32-3]: the IC50 was 2240 nM. Compared with the last molecule, the IC50 is about 280-fold higher. The same measure, in the same setting: for `Cc1nc(N[C@H](C)c2cccc(C(F)F)c2F)c2cc(C3CCN(C4COC4)CC3)c(=O)n(C)c2n1` [Example 8-14] the value was 420 nM. For `C[C@@H](Nc1ncnc2c1cc(C1CCN(CC(F)F)CC1)c(=O)n2C)c1cccc(C(F)F)c1F` [Example 8-13], the IC50 amounted to 364 nM. `COC1(c2cc3c(N[C@H](C)c4cccc(C(F)F)c4F)ncnc3n(C)c2=O)CCS(=O)(=O)C(C)C1` (some centres unmarked) [Example 32-67] had an IC50 of 128 nM.

`CO[C@@]1(c2cc3c(N[C@H](C)c4cccc(C(F)F)c4F)nc(C)nc3n(C)c2=O)CCN(C(C)=O)C1` [Example 32-69]: half-maximal inhibition (IC50) was put at 77.8 nM. `CO[C@@]1(c2cc3c(N[C@H](C)c4cccc5c4OCC5(F)F)ncnc3n(C)c2=O)CCN(C(C)=O)C1` [Example 32-93] showed an IC50 of 294 nM. Regarding `C[C@@H](Nc1ncnc2c1cc(-c1cncnc1)c(=O)n2C)c1cccc(C(F)F)c1F` [Example 21-2], the IC50 was 247 nM. Still for that read-out and setting: under `Cc1nc(N[C@H](C)c2cccc(C(F)F)c2F)c2cc(-c3ccnnc3)c(=O)n(C)c2n1` [Example 21-3] stands 188 nM. `Cc1nc(N[C@H](C)c2cccc(C(F)F)c2F)c2cc(C3CCN(CC(F)(F)F)CC3)c(=O)n(C)c2n1` [Example 8-17]: the IC50 was 542 nM. Molecule `C[C@@H](Nc1ncnc2c1cc(C1CCN(CC(F)(F)F)CC1)c(=O)n2C)c1cccc(C(F)F)c1F` [Example 8-16] returned an IC50 of 917 nM. `C[C@@H](Nc1ncnc2c1cc(C1(C#N)CCN(C)CC1)c(=O)n2C)c1cccc(C(F)F)c1F` [Example 36-2] came in with an IC50 of 63 nM. On the same count and under the same terms, for `C[C@@H](Nc1ncnc2c1cc(Cc1ccccc1)c(=O)n2C)c1cccc(C(F)(F)F)c1` [Example 20-3] the value was 2640 nM; for `COC1(c2cc3c(N[C@H](C)c4cccc(C(F)F)c4F)ncnc3n(C)c2=O)CCS(=O)(=O)C1` (some centres unmarked) [Example 32-73], 57.1 nM. On the same count and under the same terms, for `COC1(c2cc3c(N[C@H](C)c4cccc(C(F)F)c4C)ncnc3n(C)c2=O)CCS(=O)(=O)CC1` [Example 32-86] the value was 82.5 nM; for `C[C@@H](Nc1ncnc2c1cc(C1CCN(C(=O)CO)CC1)c(=O)n2C)c1cccc(C(F)F)c1F` [Example 8-10], 61.5 nM.

On to `CC(=O)N1CCC(OC2CC2)(c2cc3c(N[C@H](C)c4cccc(C(F)F)c4F)ncnc3n(C)c2=O)C1` (some centres unmarked) [Example 32-71], for which half-maximal inhibition (IC50) was put at 41.8 nM. This IC50 and that of the molecule before are within 1.5-fold of each other. The molecule `CO[C@@]1(c2cc3c(N[C@H](C)c4cccc(C(F)F)c4C)ncnc3n(C)c2=O)CCN(C(C)=O)C1` [Example 32-99] registered a half-inhibitory concentration (IC50) of 16.9 nM. This IC50 is about 2.5-fold lower than that of the molecule before. `CO[C@]1(c2cc3c(N[C@H](C)c4cccc5c4OCC5(F)F)ncnc3n(C)c2=O)CCN(C(C)=O)C1` [Example 32-94] showed an IC50 of 28 nM. The molecule `C[C@@H](Nc1ncnc2c1cc(-c1ccc[nH]1)c(=O)n2C)c1cccc(C(F)F)c1F` [Example 21-1] yielded an IC50 of 1160 nM.

As for `Cc1nc(N[C@H](C)c2cccc(C(F)F)c2F)c2cc(-c3cncnc3)c(=O)n(C)c2n1` [Example 21-4], the IC50 was 365 nM. The molecule `CC(=O)N1CCC(c2cc3c(N[C@H](C)c4cccc(C(F)F)c4F)nc(C)nc3n(C)c2=O)CC1` [Example 8-9] registered an IC50 of 86.8 nM. `CO[C@]1(c2cc3c(N[C@H](C)c4cccc(C(F)F)c4C)ncnc3n(C)c2=O)CCN(C(C)=O)C1` [Example 32-98] yielded an IC50 of 231 nM. Same read-out and setting: under `C[C@@H](Nc1ncnc2c1cc(Cc1ccccc1)c(=O)n2C)c1cccc(C(F)F)c1F` [Example 20-2] stands 2550 nM.

The experiment is the same for the next values; noted with them: Homo sapiens, PC-9, 1 h, 1 hour incubation.
The molecule `CC(=O)N1CC2CC2(c2cc3c(N[C@H](C)c4cccc(C(F)F)c4F)ncnc3n(C)c2=O)C1` (stereo partly drawn) [Example 54, 6-{3-acetyl-3-azabicyclo[3.1.0]hexan-1-yl}-4-{[(1R)-1-[3-(difluoromethyl)-2-fluorophenyl]ethyl]amino}-8-methyl-7H,8H-pyrido[2,3-d]pyrimidin-7-one] came in with an IC50 of 46.3 nM. On to `Cc1nc(N[C@H](C)c2cccc(C(F)F)c2F)c2cc(C3COC3)c(=O)n(C)c2n1` [Example 16, 4-[[(1R)-1-[3-(difluoromethyl)-2-fluoro-phenyl]ethyl]amino]-2,8-dimethyl-6-(oxetan-3-yl)pyrido[2,3-d]pyrimidin-7-one], for which it took 346 nM to reach half-maximal inhibition (IC50).
